Four molecules from DBAASP can be followed below.

Test systems include Streptococcus pyogenes; Candida krusei ATCC 6258; Pseudomonas aeruginosa; Escherichia coli; Klebsiella pneumoniae; Acinetobacter baumannii; Staphylococcus aureus; Enterococcus faecalis; Listeria ivanovii; Saccharomyces cerevisiae; Escherichia coli ESBL.
Holding throughout (test): ≥ marks a high value that may be exact or a test limit, other limits are often not marked, values filed in µg/mL are converted to µM
Test [1] deals with Enterococcus faecalis ATCC 29212.
Test [2] deals with Candida albicans LABMIC 0107.
In test [3] the test system is Microsporum canis LABMIC 0401.
In test [4] the test system is Candida tropicalis LABMIC 0112.
In test [5] the test system is Trichophyton rubrum LABMIC 0203.
Test [6] deals with Pseudomonas aeruginosa ATCC 27853.
The test system of test [7] is Candida tropicalis LABMIC 0109.
Test [8] relates to Staphylococcus aureus ATCC 25923.
In test [9] the test system is Klebsiella pneumoniae ATCC 13883.
Test [10] deals with Papiliotrema laurentii LABMIC 0404.
For test [11], the system named is Escherichia coli KpC+001812446.
Test [12] relates to Staphylococcus aureus ATCC 29213.
Test [13] deals with Klebsiella pneumoniae KpC+001825971.
Test [14] relates to Candida parapsilosis ATCC 22019.
Test [15] concerns Candida parapsilosis LABMIC 0113.
Test [16] relates to Streptococcus pyogenes ATCC 19615.
The subject of test [17] is Acinetobacter baumannii ATCC 19606.
Test [18] deals with Escherichia coli ATCC 25922.
The test system of test [19] is Staphylococcus aureus ATCC BAA-44.
Test [20] has as its system Candida albicans ATCC 90028.
For test [21], the system named is Cryptococcus neoformans ATCC 90012.
Test [22] concerns Bacillus subtilis ATCC 19659.
In test [23] the test system is Staphylococcus haemolyticus.
The subject of test [24] is Streptococcus sp. Group G.
The subject of test [25] is Staphylococcus epidermidis.
For test [26], the system named is Escherichia coli ATCC 35218.
Test [27] deals with Streptococcus sp. Group C.
Test [28] concerns Staphylococcus aureus ATCC 43300.
In test [29] the test system is Staphylococcus saprophyticus.

In brackets after ≈: the same amount, converted by molar mass.

The term MIC denotes the lowest concentration found to suppress growth. A higher MIC goes with a less susceptible organism. With `CC[C@H](C)[C@H](NC(=O)[C@H](CCCCN)NC(=O)[C@H](CCCCN)NC(=O)[C@H](CC(C)C)NC(=O)[C@H](CCCN=C(N)N)NC(=O)[C@H](CCCCN)NC(=O)[C@@H](N)CCCCN)C(=O)N[C@@H](Cc1ccccc1)C(=O)N[C@@H](CCCCN)C(=O)N[C@@H](CCCCN)C(=O)N1CCC[C@H]1C(=O)N[C@@H](CCSC)C(=O)N[C@H](C(=O)N[C@H](C(=O)NCC(=O)N[C@H](C(=O)N[C@H](C(=O)N[C@H](C(=O)N1CCC[C@H]1C(=O)N[C@@H](Cc1ccccc1)C(N)=O)[C@@H](C)CC)[C@@H](C)O)C(C)C)[C@@H](C)CC)C(C)C` [KKRLKKIFKKPMVIGVTIPF], the MIC in the test with Streptococcus pyogenes is 3.37 µM (≈ 8 µg/mL); in [1], greater than 54 µM; against Candida krusei ATCC 6258, 5 µM (≈ 11.8 µg/mL); in the test on Pseudomonas aeruginosa it was 27 µM (≈ 64 µg/mL); in test [2], 9.99 µM (≈ 23.7 µg/mL); in test [3], no less than 40 µM. Besides, the MIC in test [4] was 5 µM (≈ 11.8 µg/mL); with Escherichia coli, 3.37 µM (≈ 8 µg/mL); in test [5], no less than 40 µM; in test [6], 27 µM (≈ 64 µg/mL); in [7], 9.99 µM (≈ 23.7 µg/mL); with Klebsiella pneumoniae, 3.37 µM (≈ 8 µg/mL). Also, the MIC is 6.75 µM (≈ 16 µg/mL) in test [8]; 1.69 µM (≈ 4 µg/mL) in the test with Acinetobacter baumannii; 0.843 µM (≈ 2 µg/mL) in test [9]; 5 µM (≈ 11.8 µg/mL) in [10]; greater than 54 µM in the test on Staphylococcus aureus; 0.843 µM (≈ 2 µg/mL) in test [11]. Also, the MIC is no less than 54 µM with Enterococcus faecalis; greater than 54 µM in [12]; 3.37 µM (≈ 8 µg/mL) in test [13]; no less than 40 µM in [14]; 5 µM (≈ 11.8 µg/mL) in [15].
For the molecule `CC[C@H](C)[C@H](NC(=O)[C@H](CCCN=C(N)N)NC(=O)[C@H](CCCN=C(N)N)NC(=O)[C@H](CC(C)C)NC(=O)[C@H](Cc1ccccc1)NC(=O)[C@H](Cc1ccccc1)NC(=O)[C@@H](N)Cc1ccccc1)C(=O)N[C@@H](Cc1ccccc1)C(=O)O` [FFFLRRIF], the MIC in [16] is no less than 50 µM; in test [1], greater than 100 µM; in test [17], greater than 100 µM; in the test on Listeria ivanovii it was no less than 100 µM; in [6], greater than 100 µM; in test [18], greater than 100 µM. Further, the MIC in [19] is no less than 100 µM; in test [8], 100 µM (≈ 115 µg/mL); in test [9], no less than 100 µM; against Saccharomyces cerevisiae, no less than 100 µM; in test [20], no less than 100 µM; in [14], no less than 100 µM.
With `CC[C@H](C)[C@H](NC(=O)[C@H](C)NC(=O)CNC(=O)[C@H](Cc1ccccc1)NC(=O)[C@@H](NC(=O)[C@@H](N)CC(=O)O)[C@@H](C)CC)C(=O)N[C@@H](Cc1c[nH]c2ccccc12)C(=O)N1CCC[C@H]1C(=O)N[C@@H](CC(C)C)C(=O)N[C@@H](C)C(=O)N[C@@H](CC(C)C)C(=O)NCC(=O)N[C@@H](C)C(=O)N[C@@H](CC(C)C)C(=O)N[C@@H](CCCCN)C(=O)N[C@@H](CC(N)=O)C(=O)N[C@@H](CC(C)C)C(=O)N[C@H](C(=O)N[C@@H](CCCCN)C(N)=O)[C@@H](C)CC` [DIFGAIWPLALGALKNLIK], the MIC in [21] is 16 µM (≈ 32.8 µg/mL); in the test on Candida krusei ATCC 6258, 16 µM (≈ 32.8 µg/mL); in test [22] it was 4 µM (≈ 8.21 µg/mL); in [6], greater than 128 µM; in test [18], greater than 128 µM; in test [8], 8 µM (≈ 16.4 µg/mL). Further, the MIC in [20] and in test [14] was 16 µM (≈ 32.8 µg/mL) each time.
Consider `NC(=O)[C@H](Cc1c[nH]c2ccccc12)NC(=O)[C@H](Cc1c[nH]c2ccccc12)NC(=O)[C@H](Cc1c[nH]c2ccccc12)NC(=O)[C@H](Cc1c[nH]c2ccccc12)NC(=O)[C@@H]1CCCN1C(=O)[C@H](CCCN=C(N)N)NC(=O)[C@@H]1CCCN1C(=O)[C@H](CCCN=C(N)N)NC(=O)[C@@H]1CCCN1C(=O)[C@H](CCCN=C(N)N)NC(=O)[C@@H]1CCCN1C(=O)[C@H](CCCN=C(N)N)NC(=O)[C@@H](N)CCCN=C(N)N` [RRPRPRPRPWWWW], for which the MIC stood at 11.7 µM (≈ 22.6 µg/mL) against Streptococcus pyogenes; 8.28 µM (≈ 16 µg/mL) in [16]; 66.2 µM (≈ 128 µg/mL) in the test with Pseudomonas aeruginosa; 8.28 µM (≈ 16 µg/mL) in the test on Escherichia coli; 4.14 µM (≈ 8 µg/mL) in test [23]; 33.1 µM (≈ 64 µg/mL) in test [6]. Further, the MIC in test [24] worked out at 11.7 µM (≈ 22.6 µg/mL); in [18], 8.28 µM (≈ 16 µg/mL); in [25], 4.14 µM (≈ 8 µg/mL); in test [26], 8.28 µM (≈ 16 µg/mL); with Staphylococcus aureus it was 11.7 µM (≈ 22.6 µg/mL); in test [27], 4.14 µM (≈ 8 µg/mL). Besides, the MIC in test [28] is 8.28 µM (≈ 16 µg/mL); in the test with Escherichia coli ESBL it was 16.6 µM (≈ 32 µg/mL); in [12] it was 8.28 µM (≈ 16 µg/mL); in test [29], no less than 33.1 µM.
